In US7745465B2, “Method of enhancing cellular production of molecular chaperone, hydroxylamine derivatives useful for enhancing the chaperone production and the preparation thereof” (CytRx Corporation, priority 1995, dated 2010):

Tests used:
[1] = system: Hsp72; experiment: Western blot of hsp72 in heat shocked H9c2 cells; type: cell-based, rat
Procedure: (§1) Experiments set forth in this section were conducted to determine whether N-[2-hydroxy-3-(1-piperidinyl)propoxy]-3-pyridinecarboximidoyl chloride maleate acts to increase the expression of molecular chaperon by a cell. The accumulation of different heat shock proteins subsequent to a period of exposure to heat shock alone, and to heat shock in combination with N-[2-hydroxy-3-(1-piperidinyl)propoxy]-3-pyridinecarboximidoyl chloride maleate administration, was examined by adding 10^−5 M of N-[2-hydroxy-3-(1-piperidinyl)propoxy]-3-pyridinecarboximidoyl chloride maleate before, during, or immediately after hyperthermic treatment of heart myogenic cells (H9c2 cells).
(§2) The embryonic rat heart-derived cell line H9c2 was obtained from European Collection of Animal cell Cultures (ECACC) (88092904). The cells were maintained at 37° C. in Dulbecco's modified Eagle's medium (DMEM) supplemented with 10% fetal calf serum (GIBCO) in JOUAN C02 thermostat (5% CO2).
(§3) Heat shock was performed at 43° C. in CO2 thermostat for the given time intervals (20, 40, 60, 90 and 120 min.). Cells were then taken back to 37° C. for 6 hours and proteins were extracted for SDS-PAGE. […]
(§4) Protein concentration was determined from 5:1 samples by the Bradford assay (M. M. Braford, Anal. Biochem., 72: 248-254 (1976)) in three parallel. […]

[2] = system: Grp94; experiment: Western blot of Grp94 in heat shocked H9c2 cells; type: cell-based, rat
Procedure: as §1, §2, §3, §4

[3] = system: SPRD male rats; experiment: Cardiac ischemia (LAD occlusion 5 min, reperfusion 10 min): ventricular tachycardia, fibrillation, survival; type: in vivo, rat
Procedure: Experiments were carried out in SPRD male rats. The animals were anaesthetized with Nembutal in a dose of 60 mg/kg/i.p. After opening the chest and pericardium, the LAD coronary artery was occluded for 5 minutes and then the incidence and duration of ventricular tachycardia and fibrillation in the reperfusion period (10 minutes) were investigated. Tissue samples were collected from the left and right ventricles.

[4] = system: TNF treated WEHI 164; experiment: Protection of cells against cytotoxic cytokines (TNF); type: cell-based; settings: WEHI 164 (and other mammalian) cells
[5] = system: HSP72; experiment: Heat stress induced hsp72 level in L-929 mouse fibroblast cells; type: cell-based; settings: L-929 cells, 10^−5 M, treatment preceded heat stress
Procedure: From the applied cells the 3T3 and L-929 mouse fibroblasts were cultured in MEM medium and grew in monolayer, the U-937 human leukemia cells were maintained in RPMI-1640 medium, in suspension culture, while the HeLa human epithelial cells were cultured in DMEM medium and in monolayer form. Cell cultures were maintained as described in example 6.2 (a) with the difference that cells were cultured in the above mentioned culture mediums.
Experiments were carried out applying stress before and after the drug treatment. Stress was provoked by heat, by chemical agent, HgCl2 treatment. The test compounds were applied in the treatments at the 10^−5 M concentration.
The experiments on 3T3 cell applying heat stress were performed as described in the 6.2. (c) point of example 6, with the difference that stress was induced by a 30 min. exposure at 43° C. temperature and treatment with the test compounds was performed 15 min. before or 100 min. after the heat stress.
Experiments using heat shock on U-937 leukemia and L-929 mouse fibroblast cells were carried out similarly as described above, but drug treatments in these tests always preceded the heat stress. The compound N-[2-hydroxy-3-(1-piperidinyl)-propoxy]-3-pyridine-carboximidoyl chloride maleate was tested at the 10^−5 M concentration under these experimental conditions.

[6] = 0.5-, 0.75-, 1.0 mg/kg i.v. 5 min. before the occlusion

`O=C(O)/C=C\C(=O)O.OC(CON=C(Cl)c1cccnc1)CN1CCCCC1` (stereo not drawn) [N-[2-hydroxy-3-(1-piperidinyl)-propoxy]3-pyridinecarboximidoyl chloride maleate] was tested. Which “effect on hsp72 level” value ([1]; added during the recovery phase) did it give?
The value was “also effective though to a lesser degree”.

What about the “hsp72 level increased when comparing to 37° C. samples” value ([1]; administration before heat stress, 60 min. heat stress) of the same molecule?
Its value is “about 50 times”.

What about the “effect on Grp94 level” value ([2]; addition during recovery from heat stress lasting for 40 to 60 min.) of the same molecule?
Its value is “almost effective as the administration”.

What about the “increase of Grp94 compared to 43° C. treatment” value ([2]; preaddition of the drug combined with a 20 min. long heat shock) of the same molecule?
The value was 4 times.

What about the “survival of reperfusion after the 5 min. occlusion” value ([3]; 100 mg/kg p.o., all control animals (n=6) died) of the same molecule?
The value was “survived the reperfusion”.

What about the “mean duration of ventricular tachycardia” value [3, 6] of the same molecule?
Its value is “reduced significantly”.

What about the “survival rate (preventing ventricular fibrillation)” value [3, 6] of the same molecule?
The value was “improved the survival rate”.

What about the “survival rate of TNF treated cells” value [4] of the same molecule?
The value was “increased the survival rate”.

And the “increase in the heat stress induced hsp72 level” value [5]?
The value was “more than 50%”.
